Entries after “also recorded” stand apart in the source; their conditions may differ.
Key:
[1] = tested on: GATA1 in K562 cells; assay: Immunoprecipitation and quantification of total and acetyl-GATA1; type: cell-based; settings: K562 nuclear lysate
Description: Nuclear protein was extracted according to previously described protocol (45). 10% of the nuclear protein extraction was saved as input. The remaining nuclear extract was diluted with non-denaturing IP buffer (20 mM Tris-HCl pH 8, 137 mM NaCl, 10% glycerol, 1% Triton X-100, 2 mM EDTA) and pre-cleared with normal rat IgG (Santa Cruz, sc2026) and Dynabeads Protein G (ThermoFisher, 10004D). Pre-cleared solutions were split into two equal portions, and 5 μg of anti-GATA1 antibody (Santa Cruz, sc266) or normal rat IgG were added to either portion and incubated overnight at 4° C. overnight. Antibodies were then pulled-down using Dynabeads Protein G, and washed 1× with the IP buffer and 2× with PBS containing 1% Triton X-100. The beads were boiled in 2× protein loading buffer to dissociate the proteins. Input and IP-ed proteins were ran on SDS-PAGE gels and transferred to PVDF membranes. The input samples were blotted using anti-topoisomerase 1 (Abcam, ab109374) and anti-GATA1 antibodies, and the IP-ed samples were blotted with anti-acetyl-lysine antibody (Abcam, ab21623). Quantification of signal intensity was done by ImageJ, and GATA1 and acetyl-GATA1 signals were normalized to the topoisomerase 1 signals in each sample.

[2] = tested on: K562 cells; assay: RNA-seq gene expression in K562 cells; type: cell-based, human
Description: (§1) K562, HEL, and HL-60 cells were cultured in RPMI 1640 medium supplemented with 10% FBS. TF-1 cells were cultured in RPMI 1640 medium supplemented with 10% FBS and 4 ng/mL GM-CSF. Before treatment, TF-1 cells were washed 4× with RPMI 1640 without supplements, and cultured in RPMI 1640 medium with 10% FBS but no GM-CSF for 24 hours. 4 ng/mL GM-CSF or 3 units/mL EPO were added at the time of treatment set up. K562, HEL, and HL-60 cells were cultured as normal until treatment set up. JQ1 (Sigma-Aldrich, SML1524), CPI-0610 (Selleck Chemicals, S7853), and PLX51107 (MedChemExpress, HY-111422) were dissolved in DMSO to 10 mM concentration and stored in −80° C. All three inhibitors were applied to cells at 200 nM, with parallel DMSO treatment (0.002%) as control. JQ1 and PLX51107 were added to cell culture at day 0 without additional treatments up to day 5. CPI-0610 was reapplied to the cells on a daily basis.
Sample RNA libraries were prepared using the KAPA mRNA HyperPrep Kit (Roche, KK8580) with 1 μg input RNA and submitted for sequencing. Raw reads in fastq format were aligned to the hg19 reference genome using HISAT2(38) with Gencode gene and transcript annotation (GRCh37.p13)(39). Gene expression was quantified and compared by tools in the Cuffliks package (40). GO analysis and term clustering was performed using g:Profiler and Cytoscape following the protocols published by Reimand et al (41).

[3] = tested on: HEL cells; assay: Sanger sequencing of HBG1/2 cDNA, HBG1 vs HBG2 ratio, HEL cells; type: cell-based, human; settings: DMSO vs JQ1 treatment, sequencing peak heights
[4] = tested on: BET proteins; settings: BRD2/BRD3/BRD4/BRDT, literature refs 17, 18; cited from earlier work
[5] = tested on: β-globin locus in K562 cells; assay: 3C-qPCR interaction frequency at the β-globin locus in K562 cells; type: cell-based, human
Description: as §1
Methods for chromatin conformation capture (3C) qPCR was adapted from Hagège et al. (42). Briefly, 10 million cells were collected and fixed with 1% formaldehyde for 5 minutes in PBS with 10% FBS for 5 minutes, then quenched by 124 mM glycine on ice. The fixed cells were then lysed and digested by 400 units of EcoRI (NEB, R3101). Small aliquots of the samples were taken before and after the digestion as digestion controls. Following the digestion, the samples were diluted and ligated by T4 DNA ligase (NEB, M0202). The samples were then reverse-crosslinked, and DNA was purified by phenol-chloroform extraction. The digestion efficiency, sample purity, and DNA concentration of each sample were assessed by qPCR to exclude low-quality samples prior to the 3C quantification. Calculated quantity of each primer pairs was normalized as number of templates per million B13 control site template. Additionally, because the Gg primer anneals to both HBG1 and HBG2 fragments, while the Ag primer anneals to only HBG2 fragment, the Gg primer signal was subtracted by Ag primer signal to quantify the HBG1 interaction frequency. […]

[6] = tested on: HEL cells; assay: Cell growth and viability of HEL cells with BET inhibitor; type: cell-based; settings: 200 nM vs DMSO control, days 0-3
Description: as §1

[7] = tested on: K562 cells; assay: RT-qPCR quantification of gene expression in K562 cells; type: cell-based, human
Description: as §1
(§2) cDNA libraries for mRNAs were made from 1 μg input RNA using High-Capacity cDNA Reverse Transcription Kit (ThermoFisher, 4368814). Gene expressions were quantified using Power SYBR Green PCR Master Mix (Thermofisher, 4367659). For microRNAs, cDNA libraries were made with Taqman Advanced miRNA cDNA Synthesis Kit (Thermofisher, A28007). miR-15A and miR-16-1 were quantified using the Taqman Advanced miRNA Assays (ThermoFisher, A25576) specific to hsa-miR-15a-5p (assay ID: 477858_mir) and hsa-miR-16-5p (assay ID: 477860_mir).

[8] = tested on: β-globin locus in TF-1 cells; assay: 3C-qPCR interaction frequency at the β-globin locus in TF-1 cells; type: cell-based, human
Description: as §1, with “JQ1 and PLX51107 were added to cell culture at day 0 without additional treatments up to day 5. CPI-0610 was reapplied to the cells on a daily basis.” left out
Methods for chromatin conformation capture (3C) qPCR was adapted from Hagège et al. (42). […] The digestion efficiency, sample purity, and DNA concentration of each sample were assessed by qPCR to exclude low-quality samples prior to the 3C quantification. Calculated quantity of each primer pairs was normalized as number of templates per million B13 control site template. Additionally, because the Gg primer anneals to both HBG1 and HBG2 fragments, while the Ag primer anneals to only HBG2 fragment, the Gg primer signal was subtracted by Ag primer signal to quantify the HBG1 interaction frequency. […]

[9] = tested on: HL-60 cells; assay: RT-qPCR quantification of hemoglobin gene expression in HL-60 cells; type: cell-based, human; settings: 200 nM
Description: as §1, with “CPI-0610 was reapplied to the cells on a daily basis.” left out
as §2

[10] = tested on: K562 cells; assay: Sanger sequencing of HBG1/2 cDNA, HBG1 vs HBG2 ratio, K562 cells; type: cell-based, human; settings: DMSO vs JQ1 treatment, sequencing peak heights

SMILES: Cc1sc2c(c1C)C(c1ccc(Cl)cc1)=N[C@@H](CC(=O)OC(C)(C)C)c1nnc(C)n1-2 [JQ1]
- GATA1 acetylation ([1]; IP, anti-acetyl-lysine): remained unchanged; also recorded: does not affect
- Total GATA1 level ([1]; normalized to TOP1): did not affect
- Expression of heme biosynthesis pathway genes, notably ALAS2 ([2]; RNA-seq): upregulated
- Expression of α- and β-globin hemoglobin genes ([2]; RNA-seq): increased the expression of all α- and β-globin hemoglobin genes except HBB and HBD
- GATA1 expression ([2]; RNA-seq): did not change
- HEMGN expression ([2]; RNA-seq): significantly suppresses
- NR2F2 expression ([2]; RNA-seq): did not change
- Differentiation (GO analysis of up- and down-regulated genes) ([2]; day 3 and day 5): specifically promotes erythroid, but not myeloid differentiation
- Transcriptome (gene expression) change ([2]; day 3 and day 5, JQ1 vs DMSO): substantially changed the transcriptome
- Ratio of HBG1 vs. HBG2 [3]: no significant changes
- Affinity among BET family members [4]: higher affinity for BRD3 and BRD4
- Interaction frequency of 5′BG (5′BGLT3 fragment) with the HBG1/2 region and the LCR [5]: significantly increase
- Increase in interaction frequency between the LCR and the HBG promoter region ([5]; 72 hours of JQ1 treatment): over 2 fold
- Interaction frequency between the LCR and the rest of the β-globin locus ([5]; 72 hours of JQ1 treatment): slight increases
- Cell growth [6]: grow slower; also recorded: significantly suppress cell growth by Day 3
- Cell viability [6]: unaffected; also recorded: did not affect cell viability
- miR-15A expression [7]: significantly upregulated
- miR-16-1 expression [7]: significantly upregulated
- HBB expression ([7]; 200 nM, 5-day time course): unaffected
- HBE1 expression ([7]; 200 nM, 5-day time course): upregulated
- HBG1/2 expression ([7]; 200 nM, 5-day time course): upregulated
- MYC expression ([7]; 200 nM, up to 4 days after the initial treatment): consistently suppressed
- BGLT3 expression increase ([7]; RT-qPCR): 6 fold
- HEMGN expression ([7]; RT-qPCR): significantly suppressed
- MYB expression ([7]; RT-qPCR): significantly suppressed
- Interaction with LCR across the entire locus, except at the HBE1 promoter region ([8]; both proliferative and erythropoietic conditions, 72 hours): modest decrease
- Interaction between 5′BG and upstream fragments ([8]; more prominent in the erythropoietic condition): slight decrease
- HBB, HBG1/2 and HBE1 expression [9]: had no effect
- Ratio of HBG1 vs. HBG2 [10]: no significant changes

Reference: patent US20220347186A1, “METHODS AND COMPOSITIONS FOR TREATING SICKLE CELL DISEASE AND THALASSEMIA” (THE UNIVERSITY OF CHICAGO, priority 2019, published 2022)
